According to ChEMBL document CHEMBL1140373, “Azepanone-based inhibitors of human cathepsin L” (J Med Chem, 2005):
Residues, ends and D or L forms follow the SMILES beside them. *: point of attachment. Cbz = O=C(OCc1ccccc1)*

Assays:
Cathepsin B = Cathepsin B (Homo sapiens, UniProt P07858); test: Apparent inhibitory constant against human cathepsin B; details: read-out: Ki app
Cathepsin K = target: T1, Cathepsin K (Homo sapiens, UniProt P43235); test: Apparent inhibitory constant against human cathepsin K; details: read-out: Ki app
T1 sequence (P43235 whole entry): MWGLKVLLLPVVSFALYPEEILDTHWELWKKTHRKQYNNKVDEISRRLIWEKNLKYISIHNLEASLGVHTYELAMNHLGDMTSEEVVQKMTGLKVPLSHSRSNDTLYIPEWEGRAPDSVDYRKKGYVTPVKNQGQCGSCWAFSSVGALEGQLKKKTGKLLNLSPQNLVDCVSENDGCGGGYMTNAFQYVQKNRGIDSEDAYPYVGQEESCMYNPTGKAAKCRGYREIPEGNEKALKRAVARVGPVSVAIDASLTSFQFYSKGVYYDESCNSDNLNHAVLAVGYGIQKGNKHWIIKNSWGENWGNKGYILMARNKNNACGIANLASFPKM

Procathepsin L = Procathepsin L (Homo sapiens, UniProt P07711); test: Apparent inhibitory constant against human cathepsin L; details: read-out: Ki app
Cathepsin S = Cathepsin S (Homo sapiens, UniProt P25774)
Sequence of Cathepsin S (P25774 whole entry): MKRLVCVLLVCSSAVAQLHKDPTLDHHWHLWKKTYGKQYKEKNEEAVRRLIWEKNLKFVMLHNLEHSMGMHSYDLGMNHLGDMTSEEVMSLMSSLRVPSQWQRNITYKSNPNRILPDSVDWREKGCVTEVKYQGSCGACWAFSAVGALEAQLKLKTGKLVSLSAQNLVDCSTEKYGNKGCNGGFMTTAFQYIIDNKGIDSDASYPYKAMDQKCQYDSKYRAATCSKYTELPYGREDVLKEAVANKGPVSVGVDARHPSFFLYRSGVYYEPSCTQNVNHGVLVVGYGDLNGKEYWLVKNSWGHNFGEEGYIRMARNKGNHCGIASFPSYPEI
Description: Apparent inhibitory constant against human cathepsin S

Sequence of Procathepsin L (P07711 whole entry): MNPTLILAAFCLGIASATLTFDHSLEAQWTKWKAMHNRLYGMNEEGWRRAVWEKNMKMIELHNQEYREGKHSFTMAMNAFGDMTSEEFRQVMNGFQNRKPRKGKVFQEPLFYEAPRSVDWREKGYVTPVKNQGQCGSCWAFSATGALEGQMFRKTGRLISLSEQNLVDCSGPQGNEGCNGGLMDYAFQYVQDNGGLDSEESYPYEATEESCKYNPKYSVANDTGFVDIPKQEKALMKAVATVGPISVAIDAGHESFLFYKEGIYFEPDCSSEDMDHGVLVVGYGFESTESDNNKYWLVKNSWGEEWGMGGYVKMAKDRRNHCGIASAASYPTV

In the case of CC(C)C[C@H](NC(=O)c1ccc2ccccc2n1)C(=O)N[C@H]1CCCN(S(=O)(=O)c2ccccn2)CC1=O, the Ki (Cathepsin B) is reported as 740 nM, the Ki (Cathepsin K) is reported as 0.89 nM and the Ki (Procathepsin L) is reported as 5 nM. For the same compound, the Ki (Cathepsin S) was 27 nM.

CC(C)C[C@H](NC(=O)c1cccc2ccccc12)C(=O)N[C@H]1CCCN(S(=O)(=O)c2ccccn2)CC1=O gave a Ki (Cathepsin K) of 12 nM, a Ki (Procathepsin L) of 1.4 nM and a Ki (Cathepsin S) of 5.7 nM.

Work on O=C[C@H](Cc1ccc(O)cc1)NC(=O)[C@H](Cc1ccccc1)NC(=O)OCc1ccccc1 (Cbz-Phe-Tyr-aldehyde) yielded a Ki (Cathepsin K) of 0.74 nM, a Ki (Procathepsin L) of 0.47 nM and a Ki (Cathepsin S) of 0.26 nM.

O=C(N[C@@H](Cc1ccccc1)C(=O)N[C@H]1CCCN(S(=O)(=O)c2ccccn2)CC1=O)c1cc2ccccc2o1 was tested, and the Ki (Cathepsin B) was 193 nM, the Ki (Cathepsin K) was 10.5 nM and the Ki (Procathepsin L) was 1.7 nM. It also gave a Ki (Cathepsin S) of 8.9 nM.

In the case of CC(C)C[C@H](NC(=O)c1cccc2cccnc12)C(=O)N[C@H]1CCCN(S(=O)(=O)c2ccccn2)CC1=O, the Ki (Cathepsin B) is reported as greater than 1000 nM, the Ki (Cathepsin K) is reported as 52 nM and the Ki (Procathepsin L) is reported as 8.2 nM. It also gave a Ki (Cathepsin S) of 41 nM.

O=C(N[C@@H](Cc1ccc2ccccc2c1)C(=O)N[C@H]1CCCN(S(=O)(=O)c2ccccn2)CC1=O)c1cccc2ccccc12 gave a Ki (Cathepsin B) of 150 nM, a Ki (Cathepsin K) greater than 10000 nM and a Ki (Procathepsin L) of 0.43 nM. It also gave a Ki (Cathepsin S) of 15.6 nM.

O=C(N[C@@H](Cc1ccc2ccccc2c1)C(=O)N[C@H]1CCCN(S(=O)(=O)c2ccccn2)CC1=O)c1cc2ccccc2o1 gave a Ki (Cathepsin B) of 24 nM, a Ki (Cathepsin K) of 295 nM and a Ki (Procathepsin L) of 0.57 nM. It also gave a Ki (Cathepsin S) of 3.1 nM.
